Measured values: BindingDB's records for doi:10.1016/j.bmcl.2007.12.040 (Merck Research Laboratories, 2008)
pIC50: −log10 of the molar value.

How the values were obtained:
Assay in all cases: Akt Inhibition Assay
Settings in all cases: pH 7.5; 22 °C
[1] = molecular target: RAC-alpha serine/threonine-protein kinase (Homo sapiens, UniProt P31749)
From the text: (§1) Purified recombinant human Akt kinase was monitored for kinase activity in the presence or absence of inhibitors in a 96-well format. Detection was done by homogeneous time-resolved fluorescence (HTRF) using a europium-labeled Phospho (S21)-GSK3a antibody, and streptavidin-linked XL665 fluorophore which binds to the biotin moiety on the substrate peptide.

[2] = molecular target: RAC-beta serine/threonine-protein kinase (Homo sapiens, UniProt P31751)
Sequence of RAC-beta serine/threonine-protein kinase (P31751 whole entry): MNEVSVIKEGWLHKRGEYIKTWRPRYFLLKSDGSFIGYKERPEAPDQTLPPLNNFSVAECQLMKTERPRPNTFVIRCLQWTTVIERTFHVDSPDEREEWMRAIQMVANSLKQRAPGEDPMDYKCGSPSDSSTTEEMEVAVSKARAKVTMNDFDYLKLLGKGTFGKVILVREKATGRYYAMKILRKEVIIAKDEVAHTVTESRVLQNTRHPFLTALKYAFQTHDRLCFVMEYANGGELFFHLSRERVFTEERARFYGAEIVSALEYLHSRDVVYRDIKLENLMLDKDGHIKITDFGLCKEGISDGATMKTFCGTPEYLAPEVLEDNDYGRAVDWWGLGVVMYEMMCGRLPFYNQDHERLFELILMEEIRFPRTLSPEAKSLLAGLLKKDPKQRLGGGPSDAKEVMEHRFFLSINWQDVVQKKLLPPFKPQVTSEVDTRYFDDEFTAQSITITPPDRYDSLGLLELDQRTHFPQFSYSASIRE
From the text: as §1

[3] = molecular target: RAC-gamma serine/threonine-protein kinase (Homo sapiens, UniProt Q9Y243)
Sequence of RAC-gamma serine/threonine-protein kinase (Q9Y243 whole entry): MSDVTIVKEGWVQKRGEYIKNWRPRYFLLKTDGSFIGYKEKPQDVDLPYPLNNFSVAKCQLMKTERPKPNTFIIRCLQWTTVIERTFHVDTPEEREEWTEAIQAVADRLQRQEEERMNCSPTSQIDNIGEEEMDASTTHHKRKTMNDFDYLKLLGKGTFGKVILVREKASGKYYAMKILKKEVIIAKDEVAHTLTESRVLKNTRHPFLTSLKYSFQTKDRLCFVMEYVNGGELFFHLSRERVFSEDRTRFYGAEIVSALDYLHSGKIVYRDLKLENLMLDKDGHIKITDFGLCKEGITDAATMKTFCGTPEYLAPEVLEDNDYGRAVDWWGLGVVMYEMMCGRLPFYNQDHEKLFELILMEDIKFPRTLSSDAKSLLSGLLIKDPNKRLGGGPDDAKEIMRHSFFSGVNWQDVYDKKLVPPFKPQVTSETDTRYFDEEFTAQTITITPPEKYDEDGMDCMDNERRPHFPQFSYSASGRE
From the text: as §1

Sequence of RAC-alpha serine/threonine-protein kinase (P31749 whole entry): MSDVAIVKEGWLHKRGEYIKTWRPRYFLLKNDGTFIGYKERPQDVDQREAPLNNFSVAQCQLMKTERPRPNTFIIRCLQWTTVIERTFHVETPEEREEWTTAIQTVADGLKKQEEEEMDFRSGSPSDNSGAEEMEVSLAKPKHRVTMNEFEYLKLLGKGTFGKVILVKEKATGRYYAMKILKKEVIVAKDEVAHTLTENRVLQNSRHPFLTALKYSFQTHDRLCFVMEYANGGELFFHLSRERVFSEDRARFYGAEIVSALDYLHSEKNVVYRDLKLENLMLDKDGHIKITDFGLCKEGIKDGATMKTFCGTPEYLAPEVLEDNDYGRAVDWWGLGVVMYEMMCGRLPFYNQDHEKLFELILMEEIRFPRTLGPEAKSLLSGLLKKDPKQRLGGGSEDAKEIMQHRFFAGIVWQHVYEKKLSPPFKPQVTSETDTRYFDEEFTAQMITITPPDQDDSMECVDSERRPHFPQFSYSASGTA

SMILES | pIC50 [1] | pIC50 [2] | pIC50 [3]
Nc1ncnc2c1cnn2C1CCN(Cc2ccc(-c3ncc(-c4ccccn4)cc3-c3ccccc3)cc2)CC1 [1-[1-({4-[3-phenyl-5-(pyridin-2-yl)pyridin-2-yl]phenyl}methyl)piperidin-4-yl]-1H-pyrazolo[3,4-d]pyrimidin-4-amine] | 5.79 | 6.43 | –
Nc1ncnc2c1cnn2C1CCN(Cc2ccc(-c3ncc(-c4nnc[nH]4)cc3-c3ccccc3)cc2)CC1 [1-[1-({4-[3-phenyl-5-(1H-1,2,4-triazol-3-yl)pyridin-2-yl]phenyl}methyl)piperidin-4-yl]-1H-pyrazolo[3,4-d]pyrimidin-4-amine] | 6.74 | 7.00 | –
Nc1nnc(-c2cnc(-c3ccc(CN4CCC(n5c(=O)[nH]c6ncccc65)CC4)cc3)c(-c3ccccc3)c2)s1 [1-[1-({4-[5-(5-amino-1,3,4-thiadiazol-2-yl)-3-phenylpyridin-2-yl]phenyl}methyl)piperidin-4-yl]-1H,2H,3H-imidazo[4,5-b]pyridin-2-one] | 6.36 | 7.14 | –
Nc1ncnc2c1ncn2C1CCN(Cc2ccc(-c3ncc(-c4nnn[nH]4)cc3-c3ccccc3)cc2)CC1 [9-[1-({4-[3-phenyl-5-(1H-1,2,3,4-tetrazol-5-yl)pyridin-2-yl]phenyl}methyl)piperidin-4-yl]-9H-purin-6-amine] | 6.68 | 6.98 | < 4.30
Nc1nnc(-c2cnc(-c3ccc(CN4CCC(n5cc(-c6ccccn6)cn5)CC4)cc3)c(-c3ccccc3)c2)s1 [5-{5-phenyl-6-[4-({4-[4-(pyridin-2-yl)-1H-pyrazol-1-yl]piperidin-1-yl}methyl)phenyl]pyridin-3-yl}-1,3,4-thiadiazol-2-amine] | 6.67 | 7.05 | –
Nc1ncnc2c1cnn2C1CCN(Cc2ccc(-c3ncc(-c4nccs4)cc3-c3ccccc3)cc2)CC1 [1-[1-({4-[3-phenyl-5-(1,3-thiazol-2-yl)pyridin-2-yl]phenyl}methyl)piperidin-4-yl]-1H-pyrazolo[3,4-d]pyrimidin-4-amine] | 6.58 | 7.19 | –
Nc1ncnc2c1cnn2C1CCN(Cc2ccc(-c3ncc(-c4ncccn4)cc3-c3ccccc3)cc2)CC1 [1-[1-({4-[3-phenyl-5-(pyrimidin-2-yl)pyridin-2-yl]phenyl}methyl)piperidin-4-yl]-1H-pyrazolo[3,4-d]pyrimidin-4-amine] | 6.51 | 7.21 | –

Continued by rising pIC50 [1], values first:

pIC50 [1] | pIC50 [2] | pIC50 [3] | SMILES
6.74 | 6.92 | – | Nc1ncnc2c1cnn2C1CCN(Cc2ccc(-c3ncc(-c4ncon4)cc3-c3ccccc3)cc2)CC1 [1-[1-({4-[5-(1,2,4-oxadiazol-3-yl)-3-phenylpyridin-2-yl]phenyl}methyl)piperidin-4-yl]-1H-pyrazolo[3,4-d]pyrimidin-4-amine]
6.76 | 7.29 | – | Nc1nnc(-c2cnc(-c3ccc(CN4CCC(n5cc(-c6cnccn6)cn5)CC4)cc3)c(-c3ccccc3)c2)s1 [5-{5-phenyl-6-[4-({4-[4-(pyrazin-2-yl)-1H-pyrazol-1-yl]piperidin-1-yl}methyl)phenyl]pyridin-3-yl}-1,3,4-thiadiazol-2-amine]
6.90 | 7.66 | – | Nc1nnc(-c2cnc(-c3ccc(CN4CCC(n5ncc6c(N)ncnc65)CC4)cc3)c(-c3ccccc3)c2)s1 [5-(6-{4-[(4-{4-amino-1H-pyrazolo[3,4-d]pyrimidin-1-yl}piperidin-1-yl)methyl]phenyl}-5-phenylpyridin-3-yl)-1,3,4-thiadiazol-2-amine]
6.91 | 7.42 | – | Nc1nnc(-c2cnc(-c3ccc(CN4CCC(c5cc(-c6ccncc6)[nH]n5)CC4)cc3)c(-c3ccccc3)c2)s1 [5-{5-phenyl-6-[4-({4-[5-(pyridin-4-yl)-1H-pyrazol-3-yl]piperidin-1-yl}methyl)phenyl]pyridin-3-yl}-1,3,4-thiadiazol-2-amine]
6.94 | 7.52 | – | Nc1nnc(-c2cnc(-c3ccc(CNCCC(=O)c4ccccc4N)cc3)c(-c3ccccc3)c2)s1 [3-[({4-[5-(5-amino-1,3,4-thiadiazol-2-yl)-3-phenylpyridin-2-yl]phenyl}methyl)amino]-1-(2-aminophenyl)propan-1-one]
7.02 | 7.55 | – | Nc1nnc(-c2cnc(-c3ccc(CN4CCC(c5cc(-c6ccccn6)[nH]n5)CC4)cc3)c(-c3ccccc3)c2)s1 [5-{5-phenyl-6-[4-({4-[5-(pyridin-2-yl)-1H-pyrazol-3-yl]piperidin-1-yl}methyl)phenyl]pyridin-3-yl}-1,3,4-thiadiazol-2-amine]
7.07 | 7.66 | – | Nc1nnc(-c2cnc(-c3ccc(CN4CCC(c5n[nH]c(-c6ccccn6)n5)CC4)cc3)c(-c3ccccc3)c2)s1 [5-{5-phenyl-6-[4-({4-[5-(pyridin-2-yl)-1H-1,2,4-triazol-3-yl]piperidin-1-yl}methyl)phenyl]pyridin-3-yl}-1,3,4-thiadiazol-2-amine]
